Results as given in patent US12440440B2, “Dry powder esketamine composition for use in the treatment of bipolar depression by pulmonary administration” (Novohale Therapeutics, LLC, priority 2017, dated 2025).
Counter-ions that a name gives are not always drawn.

Tests used:
[1] = in vivo; cited from earlier work
[2] = cited from earlier work
[3] = cited from earlier work; remark: listed apart in the source
[4] = nebulized saline solution, inhalation; cited from earlier work
[5] = Predicted esketamine plasma concentration for 0.20 mg/kg 40 minutes intravenous infusion; assay type: in vivo; conditions: human, 0.2 mg/kg, predicted on the basis of literature data
Experimental: The aim of the study was to determine the amount of puffs needed to obtain plasma concentration similar to that sufficient to achieve antidepressant effect as for 0.20 mg/kg 40 minutes intravenous infusion. It can be predicted on the basis of literature data that this corresponds to concentration at 40 min of infusion between about 60 to 100 ng/ml. It was also the aim to determine the number of puffs that allow to avoid a sharp peak of plasma concentration that is considered an important factor inducing adverse psychomimetic and dissociative effects.

[6] = 40-minute i.v. infusion of 0.20 mg/kg or 0.40 mg/kg, TRD patients; cited from earlier work
NMDA receptor = conditions: cited from earlier work
[7] = i.v. infusion of racemic ketamine
[8] = oral administration of ketamine

CNC1(c2ccccc2Cl)CCCCC1=O (racemic) [ketamine]
proportion of patients with treatment-resistant depression responsive to treatment [1]: about ⅔ | half-period of concentration fall ([2]; after i.v. infusion 0.5 mg/kg for 40 minutes): below 2 hours | systemic concentration of parent drug ([2]; i.v. infusion 0.5 mg/kg for 40 minutes, maintained for about 40 minutes): about 200 ng/ml | bioavailability ([3]; orally administered): 16-20%

CN[C@]1(c2ccccc2Cl)CCCCC1=O [esketamine hydrochloride]
inhaled bioavailability [4]: reduced

CN[C@]1(c2ccccc2Cl)CCCCC1=O [esketamine]
concentration at 40 min [5]: 60 to 100 ng/mL | antidepressant effects [6]: rapid onset of robust antidepressant effects

NC1(c2ccccc2Cl)CCCCC1=O (stereo not drawn) [norketamine]
maximum concentration as level of ketamine concentration [2, 7]: 10-20% | percentage of AUC norketamine to ketamine [2, 7]: 20-40% | AUC for norketamine relative to ketamine [3, 8]: exceeding 1000% | norketamine level relative to ketamine level [3, 8]: 500-1000% | activity on NMDA receptor relative to ketamine (NMDA receptor): many times less active than ketamine
